Measured values published in the supplement of paper PMC11061612.

Assays:
Assay in all cases: combination Emax (second highest fraction inhibited in the dose matrix, 72 h); higher = more inhibition; extreme values may be limits of the assay
[1] = system: K5 (Thyroid Gland Carcinoma)
Outline: (§1)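 After 24 hours at 37°C and 5% CO2 in 1536-well plates, cells in DMEM/F12 or RPMI plus 10% FBS received two-drug dose matrices for 72 hours. Viability came from CellTiter-Glo 2.0 luminescence and was scaled as inhibition, anchored at 0 by vehicle wells and at 1 by blank wells. Combination Emax is taken as the second-highest inhibition in the matrix, and Bliss excess as the observed combination effect less EA + EB − EA·EB, with EA and EB the single-agent effects.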

[2] = system: SW1271 (Small Cell Lung Carcinoma)
Outline: as §1

[3] = system: OVCAR-8 (Ovarian Carcinoma)
Outline: as §1

[4] = system: KYSE-410 (Esophageal Squamous Cell Carcinoma)
Outline: as §1

[5] = system: MHH-PREB-1 (B-Cell Non-Hodgkin's Lymphoma)
Outline: as §1

[6] = system: LB771-HNC (Head and Neck Carcinoma)
Outline: as §1

[7] = system: HCC-15 (Squamous Cell Lung Carcinoma)
Outline: as §1

[8] = system: NCI-H2795 (Mesothelioma)
Outline: as §1

[9] = system: SH-4 (Melanoma)
Outline: as §1

[10] = system: NB14 (Neuroblastoma)
Outline: as §1

[11] = system: SUP-T1 (T-Lymphoblastic Leukemia)
Outline: as §1

[12] = system: HDLM-2 (Hodgkin's Lymphoma)
Outline: as §1

[13] = system: HO-1-u-1 (Oral Cavity Carcinoma)
Outline: as §1

[14] = system: CAPAN-1 (Pancreatic Carcinoma)
Outline: as §1

[15] = system: SK-OV-3 (Ovarian Carcinoma)
Outline: as §1

[16] = system: NCI-H69 (Small Cell Lung Carcinoma)
Outline: as §1

[17] = system: EN (Endometrial Carcinoma)
Outline: as §1

[18] = system: MDA-MB-468 (Breast Carcinoma)
Outline: as §1

[19] = system: SW626 (Colorectal Carcinoma)
Outline: as §1

[20] = system: RKO (Colorectal Carcinoma)
Outline: as §1

Row | SMILES | combination Emax [1] | combination Emax [2] | combination Emax [3] | combination Emax [4] | combination Emax [5] | combination Emax [6] | combination Emax [7] | combination Emax [8] | combination Emax [9] | combination Emax [10] | combination Emax [11] | combination Emax [12] | combination Emax [13] | combination Emax [14] | combination Emax [15] | combination Emax [16] | combination Emax [17] | combination Emax [18] | combination Emax [19] | combination Emax [20]
1 | NC1(C(=O)N[C@@H](CCO)c2ccc(Cl)cc2)CCN(c2ncnc3[nH]ccc23)CC1 [Capivasertib] + CCN(CCO)CCCOc1ccc2c(Nc3cc(CC(=O)Nc4cccc(F)c4)[nH]n3)ncnc2c1 [AZD2811] (first compound max 10 µM, 7x7, partner max 1 µM) | 0.554 | 0.315 | 0.393 | 0.303 | 0.257 | 0.489 | 0.773 | 0.413 | 0.323 | 0.938 | 0.83 | 0.395 | 0.848 | 0.225 | 0.394 | 0.877 | 0.661 | 0.561 | 0.292 | 0.615
2 | CS(=O)(=O)CCNCc1ccc(-c2ccc3ncnc(Nc4ccc(OCc5cccc(F)c5)c(Cl)c4)c3c2)o1 [Lapatinib] + C[C@@H](Oc1cc(-c2cnn(C3CCNCC3)c2)cnc1N)c1c(Cl)ccc(F)c1Cl [Crizotinib] (first compound max 10 µM, 7x7, partner max 10 µM) | 0.984 | 0.529 | 0.79 | 0.934 | 0.96 | 0.854 | 0.945 | 0.949 | 0.883 | 0.979 | 0.875 | 0.552 | 0.961 | 0.527 | 0.776 | 0.845 | 0.559 | 0.959 | 0.626 | 0.942
3 | Cc1c2c(nn1C)CSCc1cc(n(C)n1)CSc1cc(c3ccccc3c1)OCCCc1c(C(=O)O)n(C)c3c-2c(Cl)ccc13 [AZD5991] + CC1(C)CCC(CN2CCN(c3ccc(C(=O)NS(=O)(=O)c4ccc(NCC5CCOCC5)c([N+](=O)[O-])c4)c(Oc4cnc5[nH]ccc5c4)c3)CC2)=C(c2ccc(Cl)cc2)C1 [Venetoclax] (first compound max 1 µM, 7x7, partner max 1 µM) | 0.183 | 0.0732 | 0.189 | 0.156 | 0.13 | 0.587 | 0.323 | 0.793 | 0.642 | 1 | 0.304 | 1 | 0.358 | 0.138 | 0.219 | 0.522 | 0.608 | 0.662 | 0.205 | 0.225
4 | C=CCn1c(=O)c2cnc(Nc3ccc(N4CCN(C)CC4)cc3)nc2n1-c1cccc(C(C)(C)O)n1 [AZD1775] + C1CN(CCC1(C(=O)N[C@@H](CCO)C2=CC=C(C=C2)Cl)N)C3=NC=NC4=C3C=CN4 [Capivasertib] (first compound max 3 µM, partner max 3 µM) | 0.603 | 0.682 | 0.812 | 0.663 | 0.812 | 0.696 | 0.878 | 0.408 | 0.715 | 0.98 | 0.916 | 0.769 | 0.913 | 0.674 | 0.581 | 0.83 | 0.715 | 0.741 | 0.583 | 0.886
5 | COc1cc2c(cc1OCCCCCOc1cc3c(cc1OC)C(=O)N1C=C(C)C[C@H]1C=N3)N=C[C@@H]1CC(C)=CN1C2=O [SG3199] + O=C(c1cc(Cc2n[nH]c(=O)c3ccccc23)ccc1F)N1CCN(C(=O)C2CC2)CC1 [Olaparib] (first compound max 0.001 µM, 7x7, partner max 10 µM) | 0.196 | 0.18 | 0.268 | 0.136 | 0.13 | 0.181 | 0.145 | 0.269 | 0.181 | 0.42 | 0.442 | 0.167 | 0.15 | 0.198 | 0.0705 | 0.242 | 0.148 | 0.231 | 0.102 | 0.114
6 | COc1cccc(OCCCN)c1-c1cc(Nc2cnc(C#N)cn2)n[nH]1 [Prexasertib] + CCc1c2c(nc3ccc(O)cc13)-c1cc3c(c(=O)n1C2)COC(=O)[C@]3(O)CC [SN-38] (first compound max 1 µM, 7x7, partner max 0.3 µM) | 0.628 | 0.769 | 1 | 0.705 | 0.96 | 0.647 | 0.857 | 0.813 | 0.684 | 1 | 0.819 | 0.676 | 0.996 | 0.809 | 0.853 | 0.896 | 0.75 | 0.817 | 0.819 | 0.909
7 | CCN(CCO)CCCOc1ccc2c(Nc3cc(CC(=O)Nc4cccc(F)c4)[nH]n3)ncnc2c1 [AZD2811] + O=C(c1cc(Cc2n[nH]c(=O)c3ccccc23)ccc1F)N1CCN(C(=O)C2CC2)CC1 [Olaparib] (first compound max 1 µM, 7x7, partner max 10 µM) | 0.329 | 0.17 | 0.367 | 0.165 | 0.125 | 0.201 | 0.755 | 0.395 | 0.265 | 0.889 | 0.528 | 0.258 | 0.274 | 0.338 | 0.226 | 0.572 | 0.434 | 0.413 | 0.213 | 0.276
8 | CN(C)CCCOc1ccc(-c2ccc3ncc4c(c3c2)n(C2CCOCC2)c(=O)n4C)cn1 [AZD0156] + C[C@@H]1COCCN1C2=NC(=NC(=C2)C3(CC3)[S@](=N)(=O)C)C4=C5C=CNC5=NC=C4 [AZD6738] (first compound max 1 µM, 7x7, partner max 10 µM) | 0.753 | 0.595 | 0.88 | 0.297 | 0.909 | 0.48 | 0.146 | 0.7 | 0.465 | 0.979 | 0.78 | 0.376 | 0.943 | 0.368 | 0.617 | 0.448 | 0.581 | 0.527 | 0.566 | 0.879
9 | COc1cccc(OCCCN)c1-c1cc(Nc2cnc(C#N)cn2)n[nH]1 [Prexasertib] + CN(C)CCCOc1ccc(-c2ccc3ncc4c(c3c2)n(C2CCOCC2)c(=O)n4C)cn1 [AZD0156] (first compound max 1 µM, 7x7, partner max 1 µM) | 0.767 | 0.678 | 0.988 | 0.483 | 0.974 | 0.587 | 0.187 | 0.789 | 0.807 | 1 | 0.821 | 0.512 | 0.975 | 0.611 | 0.853 | 0.582 | 0.762 | 0.492 | 0.707 | 0.891
10 | Cc1cc2ncnn2cc1Nc1ncc2c(n1)n(C1CCOCC1)c(=O)n2C [AZD7648] + C=CCn1c(=O)c2cnc(Nc3ccc(N4CCN(C)CC4)cc3)nc2n1-c1cccc(C(C)(C)O)n1 [AZD1775] (first compound max 10 µM, partner max 1 µM) | 0.665 | 0.633 | 0.81 | 0.361 | 0.823 | 0.455 | 0.345 | 0.602 | 0.447 | 0.998 | 0.834 | 0.585 | 0.617 | 0.5 | 0.535 | 0.389 | 0.662 | 0.526 | 0.513 | 0.678
11 | Cc1cc2ncnn2cc1Nc1ncc2c(n1)n(C1CCOCC1)c(=O)n2C [AZD7648] + CN(C)CCCOc1ccc(-c2ccc3ncc4c(c3c2)n(C2CCOCC2)c(=O)n4C)cn1 [AZD0156] (first compound max 10 µM, 7x7, partner max 1 µM) | 0.501 | 0.327 | 0.213 | 0.178 | 0.511 | 0.299 | 0.227 | 0.469 | 0.291 | 0.407 | 0.482 | 0.368 | 0.39 | 0.31 | 0.403 | 0.355 | 0.35 | 0.353 | 0.284 | 0.391
12 | C=CCn1c(=O)c2cnc(Nc3ccc(N4CCN(C)CC4)cc3)nc2n1-c1cccc(C(C)(C)O)n1 [AZD1775] + O=C(c1cc(Cc2n[nH]c(=O)c3ccccc23)ccc1F)N1CCN(C(=O)C2CC2)CC1 [Olaparib] (first compound max 1 µM, partner max 10 µM) | 0.528 | 0.619 | 0.797 | 0.251 | 0.76 | 0.533 | 0.31 | 0.57 | 0.492 | 0.986 | 0.879 | 0.74 | 0.644 | 0.516 | 0.547 | 0.478 | 0.531 | 0.484 | 0.573 | 0.719
